Results on nine molecules are retold here after patent publication US10213415B2, “Compounds as opioid receptor modulators” (JANSSEN PHARMACEUTICA NV, priority 2004, dated 2019).

SMILES strings stand for the structures. Like-named read-outs stand apart in the source and are kept apart here.

Usually EC50 stands for the concentration at which the effect is half-maximal. As usually defined, the Ki is a measure of affinity in units of concentration, obtained from inhibition or displacement.

In assay [1] the test system is novel environment-stressed mice. In words: In Vivo Assay-Stress-Induced Fecal Output (Fecal Output for 1 hr). Also noted: species or system mouse. Conditions: for Fecal Output (# pellets) cpd: novel environment-stressed mice; for Fecal Output (# pellets) cpd / response vs control in vivo at 10 mg/kg / response vs control in vivo at 30 mg/kg: 1 hr; for response vs control in vivo at 10 mg/kg / response vs control in vivo at 30 mg/kg: Mus musculus, po, 1 h. A digest of the protocol: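 Adult male Crl:CD-1(ICR) mice (˜30-35 g; at least 10 per dose group) were split into acclimated non-stressed controls, held individually for 16-18 hr in wire-mesh-bottom cages, and non-acclimated stressed groups. Mice were dosed intragastrically with vehicle or test compound in 0.5% methylcellulose, housed individually in novel cages over absorbent cardboard, and fecal pellets per mouse were counted hourly.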

Assay [2] deals with T1, delta opioid receptor (CHO-hδ cell membranes) (Homo sapiens, UniProt P41143).
T1 construct: purchased Receptor Biology, Inc. (Baltimore, Md.); host or cells: CHO cells (recombinant expression)
T1 sequence (P41143 whole entry): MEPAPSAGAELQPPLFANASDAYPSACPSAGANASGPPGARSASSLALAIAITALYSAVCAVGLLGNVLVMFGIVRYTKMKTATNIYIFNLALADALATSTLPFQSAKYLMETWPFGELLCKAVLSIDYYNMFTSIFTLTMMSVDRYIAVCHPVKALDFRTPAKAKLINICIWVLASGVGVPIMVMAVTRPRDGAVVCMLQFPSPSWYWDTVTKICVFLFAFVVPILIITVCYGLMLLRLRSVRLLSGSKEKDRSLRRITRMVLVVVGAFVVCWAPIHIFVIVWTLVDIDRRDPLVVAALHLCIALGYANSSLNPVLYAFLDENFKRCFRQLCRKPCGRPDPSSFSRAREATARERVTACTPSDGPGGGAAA
In words: Delta Opioid Receptor Functional Assay: [35S]GTPγS Binding in CHO-hδ Cell Membranes, Version 1. The assay is classed as biochemical. Conditions: read-out: DOR GTP-binding Assay_v1 EC50. A digest of the protocol:
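CHO-hδ membranes (10 μg/ml) coupled to SPA beads, incubated with 0.5 nM [35S]GTPγS and 50 μM GDP in HEPES pH 7.6, MgCl2, NaCl, DTT, EDTA buffer with increasing agonist. Nonspecific binding with 10 μM unlabeled GTPγS; response as % of basal, EC50 by curve fit.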

Another assay deals with T2, mu opioid receptor (Rattus norvegicus, UniProt P33535).
T2 construct: from tissue; host or cells: forebrain of male Wistar rats
T2 sequence (P33535 whole entry): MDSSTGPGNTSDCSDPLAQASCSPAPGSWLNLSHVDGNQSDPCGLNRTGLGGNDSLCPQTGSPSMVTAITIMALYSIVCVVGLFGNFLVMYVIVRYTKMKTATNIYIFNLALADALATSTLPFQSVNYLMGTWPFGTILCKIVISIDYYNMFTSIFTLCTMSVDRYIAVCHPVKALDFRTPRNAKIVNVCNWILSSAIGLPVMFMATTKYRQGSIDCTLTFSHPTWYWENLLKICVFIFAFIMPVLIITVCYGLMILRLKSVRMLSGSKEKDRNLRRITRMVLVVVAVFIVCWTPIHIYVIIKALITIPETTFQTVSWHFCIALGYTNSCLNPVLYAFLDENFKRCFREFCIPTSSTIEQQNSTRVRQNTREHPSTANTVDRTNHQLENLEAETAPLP
In words: Rat Brain Mu Opioid Receptor Binding Assay (and Version 2a, [3H]DAMGO). The settings on record: rat forebrain membranes, margin of error 10-20%, read-out: r Ki μ. The method, boiled down: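 Displacement of the mu-selective radioligand [3H]DAMGO (0.8 nM) measured by filtration and scintillation counting after 2.5 h at 25° C. Membranes came from male Wistar rat forebrain in Tris-HCl (50 mM, pH 7.4) plus 5 mM MgCl2; Ki derived from concentration–response, % inhibition for single doses.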

The mark [3] stands for this setting: 10 mg/kg oral, relative to acclimated control, read-out: Fecal Output cpd % control.
Setting [4] is: 10 mg/kg oral, relative to novel environment stress (NES) vehicle group, read-out: Fecal Output cpd % NES.
[5] abbreviates: 30 mg/kg oral, relative to acclimated control, read-out: Fecal Output cpd % control.
The mark [6] stands for this setting: 30 mg/kg oral, relative to novel environment stress (NES) vehicle group, read-out: Fecal Output cpd % NES.

Regarding `Cc1cc(O)cc(C)c1C[C@H](N)C(=O)N(Cc1nc(-c2ccccc2)c[nH]1)CC1CC1` [Cpd 192], the “Fecal Output (# pellets) cpd” value in assay [1] (10 mg/kg oral) is given as 10.5 pellets. Further, the response vs control in vivo at 10 mg/kg came out at 194% in assay [1] (setting [3]) and 84% in assay [1] (setting [4]). For the same molecule, the EC50 in assay [2] turned out to be 76 nM. Moreover, the Ki at mu opioid receptor is 0.09 nM.

Consider `Cc1cc(O)cc(C)c1C[C@H](N)C(=O)N(C)[C@@H](C)c1nc(Cc2ccccc2)c[nH]1` [Cpd 205], for which, in assay [1] (30 mg/kg oral), the “Fecal Output (# pellets) cpd” value was determined as 2.3 pellets. Further, the values for the response vs control in vivo at 30 mg/kg in assay [1] (setting [5]) and in assay [1] (setting [6]) were 70.7% and 24.6%, respectively. Moreover, the EC50 in assay [2] was 32 nM. Moreover, the Ki at mu opioid receptor was 0.14 nM.

In the case of `CC(C)N(C(=O)[C@@H](N)Cc1ccc(O)cc1)[C@@H](C)c1nc(-c2ccccc2)c[nH]1` [Cpd 225], the “Fecal Output (# pellets) cpd” value in assay [1] (30 mg/kg oral) turned out to be 7.3 pellets. Besides, the response vs control in vivo at 30 mg/kg in assay [1] (setting [5]) was determined as 235%; in assay [1] (setting [6]), 152%. In assay [2], the EC50 is 2190 nM. Also, the inhibition constant (Ki) on mu opioid receptor stood at 0.73 nM.

In the case of `Cc1cc(C(N)=O)cc(C)c1C[C@H](N)C(=O)N(Cc1ccccc1)[C@@H](C)c1nc(-c2ccccc2)c[nH]1` [Cpd 114], the “Fecal Output (# pellets) cpd” value in assay [1] (30 mg/kg oral) is on record as 7.8 pellets. The response vs control in vivo at 30 mg/kg was found to be 108% in assay [1] (setting [5]) and 75.7% in assay [1] (setting [6]). Further, in assay [1] (dose 3.0, oral, NES mice, fecal output 1 hr), the “# of pellets, Compound (m) 3.0” value worked out at 9.6. Further, in assay [1] (dose 3.0, oral, NES mice, vs acclimated control), the “Fecal pellet output, Compound (% control) 3.0” value came out at 282.4 % control. Besides, in assay [1] (dose 3.0, oral, vs vehicle NES group), the “Fecal pellet output, Compound (% NES) 3.0” value was determined as 96 % NES. In addition, the “# of pellets, Compound (m) 10.0” value in assay [1] (dose 10.0, oral, NES mice, fecal output 1 hr) was 7.7. The “Fecal pellet output, Compound (% control) 10.0” value in assay [1] (dose 10.0, oral, NES mice, vs acclimated control) is 226.5 % control. In addition, the “Fecal pellet output, Compound (% NES) 10.0” value in assay [1] (dose 10.0, oral, vs vehicle NES group) is 77 % NES. Moreover, the “# of pellets, Compound (m) 30.0” value in assay [1] (dose 30.0, oral, NES mice, fecal output 1 hr) is given as 5.4. Also, the “Fecal pellet output, Compound (% control) 30.0” value in assay [1] (dose 30.0, oral, NES mice, vs acclimated control) is 159 % control. Further, the “Fecal pellet output, Compound (% NES) 30” value in assay [1] (dose 30, oral, vs vehicle NES group) was found to be 54 % NES. In addition, in assay [2], the EC50 is 35 nM. Also, the Ki on mu opioid receptor was found to be 0.26 nM.

As for `Cc1cc(O)cc(C)c1C[C@H](N)C(=O)N(Cc1nc(-c2ccccc2)c[nH]1)C(C)C` [Cpd 194], the “Fecal Output (# pellets) cpd” value in assay [1] (10 mg/kg oral) was 11.8 pellets. The response vs control in vivo at 10 mg/kg in assay [1] (setting [3]) worked out at 218%; in assay [1] (setting [4]), 94.4%. In addition, in assay [2], the EC50 is 189 nM. For the same molecule, the Ki at mu opioid receptor was 0.06 nM.

On to `Cc1cc(O)cc(C)c1C[C@H](N)C(=O)N(C)[C@H](C)c1nc(-c2ccccc2)c[nH]1` [Cpd 206], for which the “Fecal Output (# pellets) cpd” value in assay [1] (10 mg/kg oral) came to 8.6 pellets. The response vs control in vivo at 10 mg/kg in assay [1] (setting [3]) was 226%; in assay [1] (setting [4]) it was 65.6%. Also, in assay [2], the EC50 amounted to 37 nM. Besides, the Ki at mu opioid receptor is 0.2 nM.

`CCN(C(=O)[C@@H](N)Cc1c(C)cc(O)cc1C)[C@@H](C)c1nc(-c2ccccc2)c[nH]1` [Cpd 216]: in assay [1] (10 mg/kg oral), the “Fecal Output (# pellets) cpd” value is reported as 4.9 pellets. Also, the figures for the response vs control in vivo at 10 mg/kg in assay [1] (setting [3]) and in assay [1] (setting [4]) were 136% and 47.6%, respectively. The EC50 in assay [2] stood at 16 nM. Besides, the Ki on mu opioid receptor is 0.04 nM.

`Cc1cc(O)cc(C)c1C[C@H](N)C(=O)N(C)Cc1nc(-c2ccccc2)c[nH]1` [Cpd 199]: the response vs control in vivo at 10 mg/kg in assay [1] (setting [4]) was 86.7%. In assay [2], the EC50 amounted to 217 nM. The Ki at mu opioid receptor is 0.3 nM.

For `Cc1cc(O)cc(C)c1C[C@H](N)C(=O)N(Cc1ccccc1)[C@@H](C)c1nc(-c2ccccc2)c[nH]1` [Cpd 218], the “Fecal Output (# pellets) cpd” value in assay [1] (30 mg/kg oral) is 3.7 pellets. Also, the response vs control in vivo at 30 mg/kg in assay [1] (setting [5]) was 138%; in assay [1] (setting [6]), 35.4%. Further, the EC50 in assay [2] turned out to be 20 nM. In addition, the Ki at mu opioid receptor was found to be 0.03 nM.
